Test results taken from patent US20250304571A1, “BIOLOGICALLY ACTIVE COMPOUNDS AND METHODS THEREOF” (Suzhou Keen Therapeutics Co., Ltd., priority 2022, published 2025).

System: 786-O (renal cell carcinoma) cells
Assay: Cell viability (CellTiter Glo) assay, inhibition of 786-O cell proliferation
Format: cell-based
Conditions: 786-O cells, 72 hours, CellTiter Glo; read-out: IC50, inhibition of 786-O cell proliferation

Row | SMILES | IC50
1 | CC1(C)C(=O)N(c2ccc(N3CCOCC3)cc2)c2nc(COC(=N)N3CCCCC3C(F)(F)F)nc(N)c21 (stereo not drawn) [Compound E172] | < 100 nM
2 | CNc1nc([C@H](C)OC(=N)N2CCC[C@@H]2C(F)(F)F)nc2c1C(C)(C)C(=O)N2c1ccc(N2CCOCC2)cc1 [Compound E180] | > 5000 nM
3 | CNc1nc([C@@H](C)OC(=N)N2CCC[C@@H]2C(F)(F)F)nc2c1C(C)(C)C(=O)N2c1ccc(N2CCOCC2)cc1 [Compound E181] | > 5000 nM
4 | CNc1nc(COC(=N)N2CCCC2C(F)(F)F)nc2c1C(C)(C)C(=O)N2c1ccc2c(c1)CCCO2 (stereo not drawn) [Compound E182] | < 100 nM
5 | N=C(OCc1nc(NC2CC2)c2c(n1)N(c1cc(F)cc(F)c1)C(=O)C21CCCC1)N1CCC[C@@H]1C(F)(F)F [Compound E206] | 100 to 500 nM

Same assay, conditions: Homo sapiens, 786-0, 72 h, read-out: IC50, inhibition of 786-O cell proliferation

Row | SMILES | IC50
6 | CC(C)Nc1nc(COC(=N)N2CCCC2C(F)(F)F)nc2c1C(C)(C)C(=O)N2c1ccc(N2CCOCC2)cc1 (stereo not drawn) [Compound E176, (4-(Isopropylamino)-5,5-dimethyl-7-(4-morpholinophenyl)-6-oxo-6,7-dihydro-5H-pyrrolo[2,3-d]pyrimidin-2-yl)methyl 2-(trifluoromethyl)pyrrolidine-1-carbimidate] | < 100 nM
7 | C[C@@H]1CN(c2ccc(N3C(=O)C(C)(C)c4c(NCC(F)F)nc(COC(=N)N5CCC[C@@H]5C(F)(F)F)nc43)cc2)C[C@H](C)O1 [Compound E203] | 100 to 500 nM

Same assay, conditions: Homo sapiens, 786-0; 786-O cells, 72 hours, CellTiter Glo; read-out: IC50, inhibition of 786-O cell proliferation

Row | SMILES | IC50
8 | CC(C)N(CC(F)(F)F)C(=N)OCc1ncc2c(n1)N(c1ccc(N3CCOCC3)cc1)C(=O)C21CCOCC1 [Compound E157, (7′-(4-morpholinophenyl)-6′-oxo-2,3,5,6,6′,7′-hexahydrospiro[pyran-4,5′-pyrrolo[2,3-d]pyrimidin]-2′-yl)methyl isopropyl(2,2,2-trifluoroethyl)carbamimidate] | > 5000 nM
9 | CC(C)N(CC(F)(F)F)C(=N)OCc1nc(Cl)c2c(n1)N(c1ccc(OC3CCCCC3)nc1)C(=O)C2(C)C [Compound E158, (4-chloro-7-(6-(cyclohexyloxy)pyridin-3-yl)-5,5-dimethyl-6-oxo-6,7-dihydro-5H-pyrrolo[2,3-d]pyrimidin-2-yl)methyl isopropyl(2,2,2-trifluoroethyl)carbamimidate] | 500 to 5000 nM
10 | CC(C)N(CC(F)(F)F)C(=N)OCc1ncc2c(n1)N(c1ccc(C3CCCCC3)cc1)C(=O)C21CC1 [Compound E159] | 100 to 500 nM
11 | CC(C)N(CC(F)(F)F)C(=N)OCc1ncc2c(n1)N(c1ccc(C3CCCCC3)nc1)C(=O)C21CC1 [Compound E160] | 500 to 5000 nM
12 | CCCCOc1ccc(N2C(=O)C3(CC3)c3cnc(COC(=N)N(CC(F)(F)F)C(C)C)nc32)cc1 [Compound E161] | 100 to 500 nM
13 | CC(C)N(CC(F)(F)F)C(=N)OCc1ncc2c(n1)N(c1ccc(N3CCOCC3)cc1)C(=O)C21CC1 [Compound E162] | 500 to 5000 nM
14 | CC(C)N(CC(F)(F)F)C(=N)OCc1ncc2c(n1)N(c1ccc(N3CCCCC3)cc1)C(=O)C21CC1 [Compound E163] | 100 to 500 nM
15 | CCCCCCOc1ccc(N2C(=O)C3(CC3)c3cnc(COC(=N)N(CC(F)(F)F)C(C)C)nc32)cc1 [Compound E164] | < 100 nM
16 | CC(C)N(CC(F)(F)F)C(=N)OCc1ncc2c(n1)N(c1ccc(O)cc1)C(=O)C21CC1 [Compound E165] | > 5000 nM
17 | CNc1nc(COC(=N)N(CC(F)(F)F)C(C)C)nc2c1C1(CC1)C(=O)N2c1ccc(N2CCCCC2)nc1 [Compound E166] | < 100 nM
18 | CC(C)N(CC(F)(F)F)C(=N)OCc1nc(N)c2c(n1)N(c1ccc(OC3CCCCC3)nc1)C(=O)C2(C)C [Compound E167] | < 100 nM
19 | CNc1nc(COC(=N)N(CC(F)(F)F)C(C)C)nc2c1C(C)(C)C(=O)N2c1ccc(OC2CCCCC2)nc1 [Compound E168] | < 100 nM
20 | CNc1nc(COC(=N)N(C)C2COC2)nc2c1C(C)(C)C(=O)N2c1ccc(OC2CCCCC2)cc1 [Compound E169] | 100 to 500 nM
21 | CC1(C)C(=O)N(c2ccc(N3CCOCC3)cc2)c2nc(COC(=N)N3CCCC3C(F)(F)F)nc(N)c21 (stereo not drawn) [Compound E170] | < 100 nM
22 | CNc1nc(COC(=N)N2CCCCC2C(F)(F)F)nc2c(-c3ccc(N4CCOCC4)cc3OC)csc12 (stereo not drawn) [Compound E171] | < 100 nM
23 | CNc1nc(COC(=N)N2CCCC2C(F)(F)F)nc2c1C(C)(C)C(=O)N2c1ccc(OC2CCCCC2)cc1 (stereo not drawn) [Compound E173] | < 100 nM
24 | CNc1nc(COC(=N)N2CCCCC2C(F)(F)F)nc2c1C(C)(C)C(=O)N2c1ccc(OC2CCCCC2)cc1 (stereo not drawn) [Compound E174] | < 100 nM
25 | CCNc1nc(COC(=N)N2CCCC2C(F)(F)F)nc2c1C(C)(C)C(=O)N2c1ccc(N2CCOCC2)cc1 (stereo not drawn) [Compound E175] | < 100 nM
26 | CNc1nc(COC(=N)N2CCCC2C(F)(F)F)nc2c(-c3ccc(N4CCOCC4)cc3)csc12 (stereo not drawn) [Compound E179, (4-(Methylamino)-7-(4-morpholinophenyl)thieno[3,2-d]pyrimidin-2-yl)methyl 2-(trifluoromethyl)pyrrolidine-1-carbimidate] | < 100 nM
27 | CNc1nc(COC(=N)N2CCC[C@H]2C(F)(F)F)nc2c1C(C)(C)C(=O)N2c1ccc(N2C[C@@H](C)O[C@@H](C)C2)nc1 [Compound E183] | 100 to 500 nM
28 | CNc1nc(COC(=N)N2CCC[C@@H]2C(F)(F)F)nc2c(-c3ccc(N4CCOCC4)cc3OC)coc12 [Compound E184, (7-(2-Methoxy-4-morpholinophenyl)-4-(methylamino)furo[3,2-d]pyrimidin-2-yl)methyl (R)-2-(trifluoromethyl)pyrrolidine-1-carbimidate] | < 100 nM

Row | SMILES | IC50
29 | CNc1nc(COC(=N)N2CCC[C@@H]2C(F)(F)F)nc2c1C(C)(C)C(=O)N2c1ccc2c(c1)CCCO2 [Compound E185] | < 100 nM
30 | C[C@@H]1CN(c2ccc(N3C(=O)C(C)(C)c4c(N)nc(COC(=N)N5CCC[C@@H]5C(F)(F)F)nc43)cn2)C[C@H](C)O1 [Compound E186, (4-amino-7-(6-((2S,6R)-2,6-dimethylmorpholino)pyridin-3-yl)-5,5-dimethyl-6-oxo-6,7-dihydro-5H-pyrrolo[2,3-d]pyrimidin-2-yl)methyl (R)-2-(trifluoromethyl)pyrrolidine-1-carbimidate] | < 100 nM
31 | [2H]C([2H])([2H])Nc1nc(COC(=N)N2CCC[C@@H]2C(F)(F)F)nc2c1C(C)(C)C(=O)N2c1ccc(N2C[C@@H](C)O[C@@H](C)C2)nc1 [Compound E187, (7-(6-((2S,6R)-2,6-Dimethylmorpholino)pyridin-3-yl)-5,5-dimethyl-4-((methyl-d3)amino)-6-oxo-6,7-dihydro-5H-pyrrolo[2,3-d]pyrimidin-2-yl)methyl (R)-2-(trifluoromethyl)pyrrolidine-1-carbimidate] | 100 to 500 nM
32 | C[C@@H]1CN(c2ccc(N3C(=O)C(C)(C)c4c(NC5CC5)nc(COC(=N)N5CCC[C@@H]5C(F)(F)F)nc43)cn2)C[C@H](C)O1 [Compound E188, (4-(Cyclopropylamino)-7-(6-((2S,6R)-2,6-dimethylmorpholino)pyridin-3-yl)-5,5-dimethyl-6-oxo-6,7-dihydro-5H-pyrrolo[2,3-d]pyrimidin-2-yl)methyl (R)-2-(trifluoromethyl)pyrrolidine-1-carbimidate] | < 100 nM
33 | C[C@@H]1CN(c2ccc(N3C(=O)C(C)(C)c4c(N)nc(COC(=N)N(C)CC(F)(F)F)nc43)cn2)C[C@H](C)O1 [Compound E189, (4-amino-7-(6-((2R,6S)-2,6-dimethylmorpholino)pyridin-3-yl)-5,5-dimethyl-6-oxo-6,7-dihydro-5H-pyrrolo[2,3-d]pyrimidin-2-yl)methyl methyl(2,2,2-trifluoroethyl)carbamimidate] | 100 to 500 nM
34 | CCN(CC(F)(F)F)C(=N)OCc1nc(N)c2c(n1)N(c1ccc(N3C[C@@H](C)O[C@@H](C)C3)nc1)C(=O)C2(C)C [Compound E190] | 100 to 500 nM
35 | CC(C)N(CC(F)(F)F)C(=N)OCc1nc(N)c2c(n1)N(c1ccc(N3C[C@@H](C)O[C@@H](C)C3)nc1)C(=O)C2(C)C [Compound E191] | 100 to 500 nM
36 | C#CCN(CC(F)(F)F)C(=N)OCc1nc(N)c2c(n1)N(c1ccc(N3C[C@@H](C)O[C@@H](C)C3)nc1)C(=O)C2(C)C [Compound E192] | 100 to 500 nM
37 | C[C@@H]1CN(c2ccc(N3C(=O)C(C)(C)c4c(N)nc(COC(=N)N(CC(F)(F)F)C5CC5)nc43)cn2)C[C@H](C)O1 [Compound E193] | 100 to 500 nM
38 | CNc1nc(COC(=N)N2CCC[C@@H]2C(F)(F)F)nc2c(-c3ccc(N4C[C@@H](C)O[C@@H](C)C4)nc3)coc12 [Compound E194] | 100 to 500 nM
39 | C[C@@H]1CN(c2ccc(N3C(=O)C(C)(C)c4c(N)nc(COC(=N)N5CC(F)(F)C(F)(F)C5)nc43)cn2)C[C@H](C)O1 [Compound E195] | 100 to 500 nM
40 | CC1(C)C(=O)N(c2ccc(N3CCOCC3)cc2)c2nc(COC(=N)N3CCC[C@@H]3C(F)(F)F)nc(NCC(F)F)c21 [Compound E197] | < 100 nM
41 | N=C(OCc1nc(NC2CC2)c2c(n1)N(c1ccc(N3CCOCC3)c(F)c1)C(=O)C21CCCC1)N1CCC[C@@H]1C(F)(F)F [Compound E198] | < 100 nM
42 | N=C(OCc1nc(C(F)F)c2c(n1)N(c1ccc(N3CCOCC3)cc1)C(=O)C21CCCC1)N1CCC[C@@H]1C(F)(F)F [Compound E199] | 500 to 5000 nM
43 | CC1(C)C(=O)N(c2ccc(N3CCOCC3)c(F)c2)c2nc(COC(=N)N3CCC[C@@H]3C(F)(F)F)nc(NC3CC3)c21 [Compound E200] | < 100 nM
44 | CCCNc1nc(COC(=N)N2CCC[C@@H]2C(F)(F)F)nc2c1C(C)(C)C(=O)N2c1ccc(N2CCOCC2)cc1 [Compound E201] | < 100 nM
45 | N=C(OCc1nc2c(c(C(F)(F)F)n1)C1(CCCC1)C(=O)N2c1ccc(N2CCOCC2)cc1)N1CCC[C@@H]1C(F)(F)F [Compound E202] | 500 to 5000 nM
46 | N=C(OCc1nc(NC2CC2)c2c(n1)N(c1cnc(N3CCCCC3)nc1)C(=O)C21CCCC1)N1CCC[C@@H]1C(F)(F)F [Compound E204] | < 100 nM
47 | N=C(OCc1nc(NC2CC2)c2c(n1)N(c1ccc(F)c(F)c1)C(=O)C21CCCC1)N1CCC[C@@H]1C(F)(F)F [Compound E205] | < 100 nM
48 | COc1cc(F)ccc1N1CC(C)(C)c2c(NC3CC3)nc(COC(=N)N3CCC[C@@H]3C(F)(F)F)nc21 [Compound E207] | < 100 nM
